This experiment addresses SARS-CoV-2 3CLpro (Severe acute respiratory syndrome coronavirus 2, UniProt P0DTD1). As to the kind of experiment: biochemical. The class given is biochemical. More on the design: Replicate_1 / Replicate_2 / mean / mean (LOPAC_screen_w_protease): unit not given here. The note with it: for inhibition at 5 µM: 4 h.
The mark [1] stands for this setting: sheet LOPAC_screen_w_protease, primary screen of LOPAC1280 at 5 µM with protease, mean of the two replicates.
Setting [2] is: sheet LOPAC_screen_w_protease, primary screen of LOPAC1280 at 5 µM with protease, replicate 1.
The mark [3] stands for this setting: sheet LOPAC_screen_w_protease, primary screen of LOPAC1280 at 5 µM with protease, replicate 2.
Setting [4] is: sheet LOPAC_screen_w_protease, primary screen with protease, 5 µM, mean of two replicates, read-out: mean.
Setting [5] is: sheet LOPAC_screen_w_protease, primary screen with protease, 5 µM, replicate 1, read-out: Replicate_1.
[6] abbreviates: sheet LOPAC_screen_w_protease, primary screen with protease, 5 µM, replicate 2, read-out: Replicate_2.
[7] abbreviates: LOPAC1280 primary screen with protease, 5 µM compound, mean of the two replicates.
The mark [8] stands for this setting: LOPAC1280 primary screen with protease, 5 µM compound, replicate 1.
[9] abbreviates: LOPAC1280 primary screen with protease, 5 µM compound, replicate 2.
[10] abbreviates: LOPAC1280 primary screen with protease, 5 µM compound, mean of two replicates.
Setting [11] is: sheet LOPAC_screen_w_protease, LOPAC1280 at 5 µM, mean of two replicates, read-out: mean.
Where [12] appears, read: sheet LOPAC_screen_w_protease, LOPAC1280 at 5 µM, replicate 1, read-out: Replicate_1.
[13] abbreviates: sheet LOPAC_screen_w_protease, LOPAC1280 at 5 µM, replicate 2, read-out: Replicate_2.
Setting [14] is: LOPAC1280 primary screen with protease, 5 µM compound, replicate 1, read-out: Replicate_1 (LOPAC_screen_w_protease).
[15] abbreviates: sheet LOPAC_screen_w_protease, LOPAC1280 primary screen at 5 µM, with protease, replicate 1, read-out: Replicate_1.
Setting [16] is: sheet LOPAC_screen_w_protease, LOPAC1280 primary screen at 5 µM, with protease, replicate 2, read-out: Replicate_2.
The mark [17] stands for this setting: sheet LOPAC_screen_w_protease, LOPAC1280 primary screen at 5 µM, with protease, mean of the two replicates, read-out: mean.

Counter-ions that a name gives are not always drawn. Like-named read-outs stand apart in the source and are kept apart here.

Under setting [1], `Nc1cc(=O)[nH]c(N)n1` [2,6-Diamino-4-pyrimidinone] returned a mean of 3.421. This molecule also returned a Replicate_1 under setting [2] of 3.441. Under setting [3], this molecule had a Replicate_2 of 3.4.
Regarding `CCCCCCCCCCCCC/C=C/[C@@H](O)[C@@H](N)CO` [Sphingosine], the inhibition at 5 µM is -0.887% under setting [4], -1.81% under setting [5] and 0.0317% under setting [6].
For `Oc1cccc2c(O)nccc12` [1,5-Isoquinolinediol], the “mean (LOPAC_screen_w_protease)” value under setting [7] is 2.037. The “Replicate_1 (LOPAC_screen_w_protease)” value under setting [8] is listed as 1.193. Under setting [9], the “Replicate_2 (LOPAC_screen_w_protease)” value is on record as 2.882.
For the molecule `Cc1nc2c(OCc3ccccc3)cccn2c1CC#N` [SCH-28080], the mean (sheet LOPAC_screen_w_protease, primary screen with protease, mean of two replicates) turned out to be 2.443. The same molecule came in with a Replicate_1 (sheet LOPAC_screen_w_protease, primary screen with protease, replicate 1) of 2.6463. The Replicate_2 (sheet LOPAC_screen_w_protease, primary screen with protease, replicate 2) stood at 2.24.
On to `CC[N+](CC)(CC)CCOc1cccc(OCC[N+](CC)(CC)CC)c1OCC[N+](CC)(CC)CC` [Gallamine triethiodide], for which the inhibition at 5 µM by setting is: (sheet LOPAC_screen_w_protease, primary screen at 5 µM, mean of two replicates, read-out: mean (LOPAC screen with protease)) 11.3%; (sheet LOPAC_screen_w_protease, primary screen at 5 µM, replicate 1, read-out: Replicate_1 (LOPAC screen with protease)) 12.1%; (sheet LOPAC_screen_w_protease, primary screen at 5 µM, replicate 2, read-out: Replicate_2 (LOPAC screen with protease)) 10.6%.
Take `Br.CCCN(CCC)C1CCc2ccc(O)cc2C1` (racemic) [(±)-7-Hydroxy-DPAT hydrobromide]: the “mean (LOPAC_screen_w_protease)” value under setting [10] was determined as 1.681. The “Replicate_1 (LOPAC_screen_w_protease)” value under setting [8] is 3.951. Also, the “Replicate_2 (LOPAC_screen_w_protease)” value under setting [9] is listed as -0.5891.
As to `OCCN1CCN(CCCN2c3ccccc3Sc3ccc(Cl)cc32)CC1` [Perphenazine], the inhibition at 5 µM is 1.14% under setting [11], 0.377% under setting [12] and 1.91% under setting [13].
In turn, `C[C@]12C=CC(=O)C=C1CC[C@@H]1C2=CC[C@]2(C)[C@@H](C(=O)CN3CCN(c4cc(N5CCCC5)nc(N5CCCC5)n4)CC3)CC[C@@H]12.O=C(O)/C=C\C(=O)O` [U-74389G maleate] displayed a mean (sheet LOPAC_screen_w_protease, primary screen with protease, 5 µM, mean of two replicates) of -0.1973. Further, the Replicate_1 (sheet LOPAC_screen_w_protease, primary screen with protease, 5 µM, replicate 1) is -0.4551. The molecule also came in with a Replicate_2 (sheet LOPAC_screen_w_protease, primary screen with protease, 5 µM, replicate 2) of 0.0606.
As to `O=C1NC(=O)C(c2ccccc2)(c2ccccc2)N1` [5,5-Diphenylhydantoin], the inhibition at 5 µM under setting [11] is 1.1%, the inhibition at 5 µM under setting [12] came to 1.83% and the inhibition at 5 µM under setting [13] is 0.367%.
Consider `COc1ccccc1N1CCN(CCCNc2cc(=O)n(C)c(=O)n2C)CC1` [Urapidil hydrochloride], for which the inhibition at 5 µM is, setting by setting: under setting [4], -0.372%; under setting [5], 0.127%; under setting [6], -0.871%.
In the case of `Nc1ccc(S(=O)(=O)Nc2ccnn2-c2ccccc2)cc1` [Sulfaphenazole], the inhibition at 5 µM runs as follows: under setting [4], 0.0259%; under setting [5], 0.159%; under setting [6], -0.107%.
On to `NS(=O)(=O)c1cccc2c1c([N+](=O)[O-])cc1nc([O-])c([O-])nc12.[Na+].[Na+]` [NBQX disodium], for which, where the note is “sheet LOPAC_screen_w_protease, primary screen at 5 µM, mean of two replicates”, the “mean (LOPAC screen with protease)” value is on record as 8.586. Besides, the “Replicate_1 (LOPAC screen with protease)” value (sheet LOPAC_screen_w_protease, primary screen at 5 µM, replicate 1) worked out at 5.7201. In addition, for the setting “sheet LOPAC_screen_w_protease, primary screen at 5 µM, replicate 2”, the “Replicate_2 (LOPAC screen with protease)” value was 11.4514.
For `CCN1CCC[C@H]1CNC(=O)c1cc(S(N)(=O)=O)ccc1OC` [(-)-Sulpiride], the inhibition at 5 µM under setting [14] was 0.997%. The “mean (LOPAC_screen_w_protease)” value under setting [10] is 1.652.
Molecule `O=C(OCCN1CCOCC1)C1(c2ccccc2)CCCCC1` [PRE-084] displayed a mean under setting [1] of 3.777. The same molecule showed a Replicate_1 under setting [2] of 2.6752. The Replicate_2 under setting [3] amounted to 4.879.
`Cc1ccc([N+](=O)[O-])cc1S(=O)(=O)N(C)C` [BRL 50481]: under setting [10], the “mean (LOPAC_screen_w_protease)” value is recorded as 1.647. For the same molecule, the “Replicate_1 (LOPAC_screen_w_protease)” value under setting [8] was 1.025. Also, the “Replicate_2 (LOPAC_screen_w_protease)” value under setting [9] is 2.268.
Regarding `O=c1c2ccccc2[nH]c(=S)n1CCN1CCC(=C(c2ccc(F)cc2)c2ccc(F)cc2)CC1` [Diacylglycerol Kinase Inhibitor II], the inhibition at 5 µM by setting is: (sheet LOPAC_screen_w_protease, LOPAC1280 primary screen at 5 µM, with protease, mean of two replicates, read-out: mean) -3.62%; under setting [15], -4.63%; under setting [16], -2.61%.
Consider `Cc1cn(C2CC(N=[N+]=[N-])C(CO)O2)c(=O)[nH]c1=O` (centres unmarked) [3'-Azido-3'-deoxythymidine], for which the inhibition at 5 µM came out at 1.04% under setting [11], 1.75% under setting [12] and 0.327% under setting [13].
Take `CC(C)[C@@]1(NC(=O)[C@@H]2C=C3c4cccc5[nH]cc(c45)C[C@H]3N(C)C2)O[C@@]2(O)[C@@H]3CCCN3C(=O)[C@H](Cc3ccccc3)N2C1=O` [Ergocristine]: the inhibition at 5 µM is, setting by setting: (read-out: Replicate_1) 4.04%; (read-out: Replicate_2) 2.86%; (read-out: mean) 3.45%.
Turning to `C=CCc1ccccc1OCC(O)CNC1(C)CCC(C(C)(C)NC(=O)CBr)CC1` (centres unmarked) [Bromoacetyl alprenolol menthane], the inhibition at 5 µM runs as follows: under setting [11], 1.3%; under setting [12], 0.0303%; under setting [13], 2.58%.
In the case of `CC[C@@H]1C(=O)OC[C@@H]1Cc1cncn1C` [Pilocarpine nitrate], the inhibition at 5 µM under setting [4] is -0.33%, the inhibition at 5 µM under setting [5] was -0.127% and the inhibition at 5 µM under setting [6] is -0.532%.
As to `Nc1ccn([C@H]2CC[C@@H](CO)O2)c(=O)n1` [2',3'-dideoxycytidine], the inhibition at 5 µM is, setting by setting: under setting [11], 1.06%; under setting [12], 1.73%; under setting [13], 0.388%.
With `Cn1c(=O)[nH]c2ncn(C)c2c1=O` [1,7-Dimethylxanthine], the inhibition at 5 µM is, setting by setting: under setting [14], 1.95%; (LOPAC1280 primary screen with protease, 5 µM compound, replicate 2, read-out: Replicate_2 (LOPAC_screen_w_protease)) 1.66%. Further, under setting [7], the “mean (LOPAC_screen_w_protease)” value is on record as 1.802.
`CCCCCCCC/C=C\CCCCCCCC(=O)NCCO` [N-Oleoylethanolamine]: the mean under setting [1] is 3.1732. The Replicate_1 under setting [2] was determined as 4.947. The Replicate_2 under setting [3] is on record as 1.4.
For `CCNC(=O)[C@H]1O[C@@H](n2cnc3c(N)ncnc32)[C@H](O)[C@@H]1O` [5'-N-Ethylcarboxamidoadenosine], the “mean (LOPAC_screen_w_protease)” value under setting [7] is 1.81. Moreover, the “Replicate_1 (LOPAC_screen_w_protease)” value under setting [8] turned out to be 1.565. Moreover, the “Replicate_2 (LOPAC_screen_w_protease)” value under setting [9] is 2.055.
`CN(C)CCC=C1c2ccccc2CCc2ccccc21` [Amitriptyline hydrochloride]: the inhibition at 5 µM runs as follows: under setting [17], 0.72%; under setting [15], 0.391%; under setting [16], 1.05%.
Molecule `Cl.Nc1c2c(nc3ccccc13)CCCC2` gave a Replicate_1 of 1.645, a Replicate_2 of 0.8036 and a mean of 1.2241.
With `CCCCCCCCCC[Si](C)(C)CCC(=O)NC(Cc1ccc(C)cc1)c1ccccc1` (centres unmarked) [Sandoz 58-035], where the note is “sheet LOPAC_screen_w_protease, LOPAC1280 primary screen at 5 µM, with protease, mean of the two replicates”, the mean was 0.7639. The same molecule returned a Replicate_1 (sheet LOPAC_screen_w_protease, LOPAC1280 primary screen at 5 µM, with protease, replicate 1) of 1.25. Besides, the Replicate_2 (sheet LOPAC_screen_w_protease, LOPAC1280 primary screen at 5 µM, with protease, replicate 2) turned out to be 0.2774.
In the case of `N=C(N)NCCC[C@H](N)C(=O)O` [L-Arginine], the inhibition at 5 µM is 0.787% under setting [17], 3.1% under setting [15] and -1.52% under setting [16].
Consider `CN1CCN(C2=Nc3ccccc3Oc3ccc(Cl)cc32)CC1` [Loxapine succinate], for which the inhibition at 5 µM reads like this: under setting [4], -0.686%; under setting [5], -0.577%; under setting [6], -0.795%.
Turning to `N#C/C(=C\c1ccc(O)c(O)c1)C(=O)NCc1ccccc1` [Tyrphostin AG 490], the inhibition at 5 µM by setting is: (sheet LOPAC_screen_w_protease, primary screen with protease, compound at 5 µM, mean of two replicates, read-out: mean) 2.61%; (sheet LOPAC_screen_w_protease, primary screen with protease, compound at 5 µM, replicate 1, read-out: Replicate_1) 3.18%; (sheet LOPAC_screen_w_protease, primary screen with protease, compound at 5 µM, replicate 2, read-out: Replicate_2) 2.05%.
As to `O=C(O)CCCCCCCC(=O)O` [Azelaic acid], the inhibition at 5 µM was 0.767% under setting [17], 1.56% under setting [15] and -0.0221% under setting [16].

(Values after paper PMC7587356, “High-Throughput Screening for Inhibitors of the SARS-CoV-2 Protease Using a FRET-Biosensor” (Molecules, 2020).)
